Results reported in patent publication US8071605B2, “Piperidine compounds for use in the treatment of bacterial infections” (AstraZeneca AB, priority 2008, dated 2011).
Values after ≈ are worked out from the molar mass of the structure shown.

molecular target: S. aureus GyrB ATPase (Staphylococcus aureus, UniProt P0A0K8); assay: S. aureus GyrB ATPase inhibition (ammonium molybdate/malachite green phosphate detection); type: biochemical; conditions: compound concentration of 1 μM (unless otherwise noted)
How it was run: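 S. aureus GyrB (250 pM) with E. coli GyrA (250 pM), 250 μM ATP and sheared DNA in pH 7.5 Hepes; phosphate release by malachite green/molybdate at 650 nm. Values are percent inhibition at 1 μM compound unless noted, against 2% DMSO and EDTA controls.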

S. aureus GyrB ATPase, sequence (P0AES4 whole entry): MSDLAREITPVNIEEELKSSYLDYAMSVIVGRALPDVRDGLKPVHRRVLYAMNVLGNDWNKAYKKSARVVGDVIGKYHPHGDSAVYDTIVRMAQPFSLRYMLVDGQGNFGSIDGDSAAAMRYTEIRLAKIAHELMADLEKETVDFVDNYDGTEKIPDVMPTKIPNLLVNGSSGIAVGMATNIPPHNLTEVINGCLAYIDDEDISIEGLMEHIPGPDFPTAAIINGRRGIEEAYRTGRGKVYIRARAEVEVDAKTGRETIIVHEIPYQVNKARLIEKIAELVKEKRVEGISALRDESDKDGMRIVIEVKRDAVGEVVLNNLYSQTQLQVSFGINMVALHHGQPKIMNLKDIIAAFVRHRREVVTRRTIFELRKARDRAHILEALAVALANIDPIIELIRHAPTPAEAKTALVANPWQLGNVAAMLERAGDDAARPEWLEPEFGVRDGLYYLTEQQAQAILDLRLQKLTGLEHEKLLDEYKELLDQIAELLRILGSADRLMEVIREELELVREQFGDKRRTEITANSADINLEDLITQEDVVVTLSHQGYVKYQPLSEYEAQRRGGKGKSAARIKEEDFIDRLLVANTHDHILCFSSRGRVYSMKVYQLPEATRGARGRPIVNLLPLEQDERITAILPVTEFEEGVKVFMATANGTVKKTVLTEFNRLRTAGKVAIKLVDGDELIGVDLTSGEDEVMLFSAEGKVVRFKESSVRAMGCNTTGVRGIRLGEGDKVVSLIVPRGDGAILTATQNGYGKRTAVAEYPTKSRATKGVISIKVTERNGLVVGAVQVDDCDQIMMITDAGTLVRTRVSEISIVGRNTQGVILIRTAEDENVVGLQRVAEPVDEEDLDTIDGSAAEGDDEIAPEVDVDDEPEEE
S. aureus GyrB ATPase, sequence (P0A0K8 whole entry): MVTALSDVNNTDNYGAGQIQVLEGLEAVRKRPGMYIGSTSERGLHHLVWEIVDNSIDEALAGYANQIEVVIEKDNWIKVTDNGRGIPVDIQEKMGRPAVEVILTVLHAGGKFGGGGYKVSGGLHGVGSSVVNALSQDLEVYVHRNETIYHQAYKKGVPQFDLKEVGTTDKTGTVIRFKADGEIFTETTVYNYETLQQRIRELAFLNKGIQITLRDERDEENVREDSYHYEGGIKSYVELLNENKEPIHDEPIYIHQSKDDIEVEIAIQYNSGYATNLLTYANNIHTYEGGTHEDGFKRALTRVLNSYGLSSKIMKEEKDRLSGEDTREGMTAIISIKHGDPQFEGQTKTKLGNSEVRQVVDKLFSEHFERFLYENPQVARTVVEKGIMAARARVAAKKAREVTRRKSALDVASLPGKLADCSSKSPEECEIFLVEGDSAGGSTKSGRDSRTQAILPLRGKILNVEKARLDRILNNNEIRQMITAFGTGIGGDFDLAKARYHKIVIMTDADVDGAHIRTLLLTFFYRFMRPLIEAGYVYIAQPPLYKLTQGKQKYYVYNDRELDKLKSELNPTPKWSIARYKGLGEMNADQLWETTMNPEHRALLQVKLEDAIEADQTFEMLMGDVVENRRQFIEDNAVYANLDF

SMILES	inhibition at 1 µM [%]
COCCn1ccnc1-c1nc(N2CC[C@@H](NC(=O)c3[nH]c(C)c(Cl)c3Cl)[C@@H](C)C2)sc1C(=O)O [Example 23]	100
CCC(CC)N1CCN(c2cnc(-c3nc(N4CC[C@@H](NC(=O)c5[nH]c(C)c(Cl)c5Cl)[C@@H](C)C4)sc3C(=O)O)cn2)CC1 [Example 179, 2-[(3S,4R)-4-{[(3,4-dichloro-5-methyl-1H-pyrrol-2-yl)carbonyl]amino}-3-methylpiperidin-1-yl]-4-{5-[4-(pentan-3-yl)piperazin-1-yl]pyrazin-2-yl}-1,3-thiazole-5-carboxylic acid]	104
CCN(CC)CCN1CCN(c2cnc(-c3nc(N4CC[C@@H](NC(=O)c5[nH]c(C)c(Cl)c5Cl)[C@@H](C)C4)sc3C(=O)O)cn2)CC1 [Example 180, 2-[(3S,4R)-4-{[(3,4-dichloro-5-methyl-1H-pyrrol-2-yl)carbonyl]amino}-3-methylpiperidin-1-yl]-4-(5-{4-[2-(diethylamino)ethyl]piperazin-1-yl}pyrazin-2-yl)-1,3-thiazole-5-carboxylic acid]	103
Cc1[nH]c(C(=O)N[C@@H]2CCN(c3nc(-c4cnc(N5CCN[C@H](C)C5)cn4)c(C(=O)O)s3)C[C@@H]2C)c(Cl)c1Cl [Example 181, 2-[(3S,4R)-4-{[(3,4-dichloro-5-methyl-1H-pyrrol-2-yl)carbonyl]amino}-3-methylpiperidin-1-yl]-4-{5-[(3R)-3-methylpiperazin-1-yl]pyrazin-2-yl}-1,3-thiazole-5-carboxylic acid]	101
Cc1[nH]c(C(=O)N[C@@H]2CCN(c3nc(-c4cnc(N5CCN(CCO)CC5)cn4)c(C(=O)O)s3)C[C@@H]2C)c(Cl)c1Cl [Example 182, 2-[(3S,4R)-4-{[(3,4-dichloro-5-methyl-1H-pyrrol-2-yl)carbonyl]amino}-3-methylpiperidin-1-yl]-4-{5-[4-(2-hydroxyethyl)piperazin-1-yl]pyrazin-2-yl}-1,3-thiazole-5-carboxylic acid]	117
Cc1[nH]c(C(=O)N[C@@H]2CCN(c3nc(-c4cnc(N5CCN(CC6CCCO6)CC5)cn4)c(C(=O)O)s3)C[C@@H]2C)c(Cl)c1Cl (stereo partly drawn) [Example 183, 2-[(3S,4R)-4-{[(3,4-dichloro-5-methyl-1H-pyrrol-2-yl)carbonyl]amino}-3-methylpiperidin-1-yl]-4-{5-[4-(tetrahydrofuran-2-ylmethyl)piperazin-1-yl]pyrazin-2-yl}-1,3-thiazole-5-carboxylic acid]	116
CO[C@H]1CN(c2nc(-c3nccc(N4CCCCC4)n3)c(C(=O)O)s2)CC[C@H]1NC(=O)c1[nH]c(C)c(Cl)c1Cl [Example 189, 2-[(3S,4R)-4-{[(3,4-dichloro-5-methyl-1H-pyrrol-2-yl)carbonyl]amino}-3-methoxypiperidin-1-yl]-4-[4-(piperidin-1-yl)pyrimidin-2-yl]-1,3-thiazole-5-carboxylic acid]	106
CO[C@H]1CN(c2nc(-c3nccc(N4CCOCC4)n3)c(C(=O)O)s2)CC[C@H]1NC(=O)c1[nH]c(C)c(Cl)c1Cl [Example 190, 2-[(3S,4R)-4-{[(3,4-dichloro-5-methyl-1H-pyrrol-2-yl)carbonyl]amino}-3-methoxypiperidin-1-yl]-4-[4-(morpholin-4-yl)pyrimidin-2-yl]-1,3-thiazole-5-carboxylic acid]	100
CO[C@H]1CN(c2nc(-c3nccc(N4CCN(C)CC4)n3)c(C(=O)O)s2)CC[C@H]1NC(=O)c1[nH]c(C)c(Cl)c1Cl [Example 191, 2-[(3S,4R)-4-{[(3,4-dichloro-5-methyl-1H-pyrrol-2-yl)carbonyl]amino}-3-methoxypiperidin-1-yl]-4-[4-(4-methylpiperazin-1-yl)pyrimidin-2-yl]-1,3-thiazole-5-carboxylic acid]	102
CO[C@H]1CN(c2nc(-c3nccc(N4CCN(CC(C)C)CC4)n3)c(C(=O)O)s2)CC[C@H]1NC(=O)c1[nH]c(C)c(Cl)c1Cl [Example 192, 2-[(3S,4R)-4-{[(3,4-dichloro-5-methyl-1H-pyrrol-2-yl)carbonyl]amino}-3-methoxypiperidin-1-yl]-4-{4-[4-(2-methylpropyl)piperazin-1-yl]pyrimidin-2-yl}-1,3-thiazole-5-carboxylic acid]	108
CCN1CCN(c2ccnc(-c3nc(N4CC[C@@H](NC(=O)c5[nH]c(C)c(Cl)c5Cl)[C@@H](OC)C4)sc3C(=O)O)n2)CC1 [Example 193, 2-[(3S,4R)-4-{[(3,4-dichloro-5-methyl-1H-pyrrol-2-yl)carbonyl]amino}-3-methoxypiperidin-1-yl]-4-[4-(4-ethylpiperazin-1-yl)pyrimidin-2-yl]-1,3-thiazole-5-carboxylic acid]	109
CO[C@H]1CN(c2nc(-c3cnc(NCC4CN5CCN4CC5)cn3)c(C(=O)O)s2)CC[C@H]1NC(=O)c1[nH]c(C)c(Cl)c1Cl (stereo partly drawn) [Example 195, 4-{5-[(1,4-diazabicyclo[2.2.2]oct-2-ylmethyl)amino]pyrazin-2-yl}-2-[(3S,4R)-4-{[(3,4-dichloro-5-methyl-1H-pyrrol-2-yl)carbonyl]amino}-3-methoxypiperidin-1-yl]-1,3-thiazole-5-carboxylic acid]	118
CCCO[C@H]1CN(c2nc(-c3ncnn3C)c(C(=O)O)s2)CC[C@H]1NC(=O)c1cc(Cl)c(C)[nH]1 [Example 200, 2-[(3S,4R)-4-{[(4-chloro-5-methyl-1H-pyrrol-2-yl)carbonyl]amino}-3-propoxypiperidin-1-yl]-4-(1-methyl-1H-1,2,4-triazol-5-yl)-1,3-thiazole-5-carboxylic acid]	106
CCCO[C@H]1CN(c2nc(-c3nccn3CCOC)c(C(=O)O)s2)CC[C@H]1NC(=O)c1cc(Cl)c(C)[nH]1 [Example 201, 2-[(3S,4R)-4-{[(4-chloro-5-methyl-1H-pyrrol-2-yl)carbonyl]amino}-3-propoxypiperidin-1-yl]-4-[1-(2-methoxyethyl)-1H-imidazol-2-yl]-1,3-thiazole-5-carboxylic acid]	105
CCCO[C@H]1CN(c2nc(-c3ncccc3F)c(C(=O)O)s2)CC[C@H]1NC(=O)c1cc(Cl)c(C)[nH]1 [Example 202, 2-[(3S,4R)-4-{[(4-chloro-5-methyl-1H-pyrrol-2-yl)carbonyl]amino}-3-propoxypiperidin-1-yl]-4-(3-fluoropyridin-2-yl)-1,3-thiazole-5-carboxylic acid]	103
CCCO[C@H]1CN(c2nc(-c3cnccn3)c(C(=O)O)s2)CC[C@H]1NC(=O)c1cc(Cl)c(C)[nH]1 [Example 203, 2-[(3S,4R)-4-{[(4-chloro-5-methyl-1H-pyrrol-2-yl)carbonyl]amino}-3-propoxypiperidin-1-yl]-4-(pyrazin-2-yl)-1,3-thiazole-5-carboxylic acid]	108
CCCO[C@H]1CN(c2nc(-c3ncnn3C)c(C(=O)O)s2)CC[C@H]1NC(=O)c1[nH]c(C)c(Cl)c1C#N [Example 208, 2-[(3S,4R)-4-{[(4-chloro-3-cyano-5-methyl-1H-pyrrol-2-yl)carbonyl]amino}-3-propoxypiperidin-1-yl]-4-(1-methyl-1H-1,2,4-triazol-5-yl)-1,3-thiazole-5-carboxylic acid]	108
CCCO[C@H]1CN(c2nc(-c3nccn3CCOC)c(C(=O)O)s2)CC[C@H]1NC(=O)c1[nH]c(C)c(Cl)c1C#N [Example 209, 2-[(3S,4R)-4-{[(4-chloro-3-cyano-5-methyl-1H-pyrrol-2-yl)carbonyl]amino}-3-propoxypiperidin-1-yl]-4-[1-(2-methoxyethyl)-1H-imidazol-2-yl]-1,3-thiazole-5-carboxylic acid]	105
CCCO[C@H]1CN(c2nc(-c3ncccc3F)c(C(=O)O)s2)CC[C@H]1NC(=O)c1[nH]c(C)c(Cl)c1C#N [Example 210, 2-[(3S,4R)-4-{[(4-chloro-3-cyano-5-methyl-1H-pyrrol-2-yl)carbonyl]amino}-3-propoxypiperidin-1-yl]-4-(3-fluoropyridin-2-yl)-1,3-thiazole-5-carboxylic acid]	109
CCCO[C@H]1CN(c2nc(-c3cnccn3)c(C(=O)O)s2)CC[C@H]1NC(=O)c1[nH]c(C)c(Cl)c1C#N [Example 211, 2-[(3S,4R)-4-{[(4-chloro-3-cyano-5-methyl-1H-pyrrol-2-yl)carbonyl]amino}-3-propoxypiperidin-1-yl]-4-(pyrazin-2-yl)-1,3-thiazole-5-carboxylic acid]	107
CCCO[C@H]1CN(c2nc(-c3ncnn3C)c(C(=O)O)s2)CC[C@H]1NC(=O)c1[nH]c(C)c(Cl)c1Cl [Example 215]	106
CCCO[C@H]1CN(c2nc(-c3nccn3CCOC)c(C(=O)O)s2)CC[C@H]1NC(=O)c1[nH]c(C)c(Cl)c1Cl [Example 216, 2-[(3S,4R)-4-{[(3,4-dichloro-5-methyl-1H-pyrrol-2-yl)carbonyl]amino}-3-propoxypiperidin-1-yl]-4-[1-(2-methoxyethyl)-1H-imidazol-2-yl]-1,3-thiazole-5-carboxylic acid]	109
CCCO[C@H]1CN(c2nc(-c3ncccc3F)c(C(=O)O)s2)CC[C@H]1NC(=O)c1[nH]c(C)c(Cl)c1Cl [Example 217, 2-[(3S,4R)-4-{[(3,4-dichloro-5-methyl-1H-pyrrol-2-yl)carbonyl]amino}-3-propoxypiperidin-1-yl]-4-(3-fluoropyridin-2-yl)-1,3-thiazole-5-carboxylic acid]	113

system: Streptococcus pneumoniae; assay: Bacterial susceptibility testing in liquid media (MIC); type: cell-based; conditions: against Streptococcus pneumoniae; lowest concentration reducing growth by 80% or more
Description: Compounds may be tested for antimicrobial activity by susceptibility testing in liquid media. Compounds may be dissolved in dimethylsulfoxide and tested in 10 doubling dilutions in the susceptibility assays. The organisms used in the assay may be grown overnight on suitable agar media and then suspended in a liquid medium appropriate for the growth of the organism. The suspension can be a 0.5 McFarland and a further 1 in 10 dilution can be made into the same liquid medium to prepare the final organism suspension in 100 μL. Plates can be incubated under appropriate conditions at 37° C. for 24 hrs prior to reading. The Minimum Inhibitory Concentration (MIC) may be determined as the lowest drug concentration able to reduce growth by 80% or more.

SMILES	MIC [µg/mL]
COCCn1ccnc1-c1nc(N2CC[C@@H](NC(=O)c3[nH]c(C)c(Cl)c3Cl)[C@@H](C)C2)sc1C(=O)O [Example 23]	0.78 (≈ 1.44 µM)
